Columns and labels:
Assay type in all cases: biochemical
[1] = target: T1, HCV protease (Hepatitis C virus genotype 1a, UniProt P27958); details: Chip; 25 mM TRIS/HCL, pH 8.5, 0.1% Triton X-100, 10 mM DTT, 1M NDSB-195
T1 construct: HCV protease was used in a similar fluorogenic assay
Experimental: The product fluorescence is proportional to the amount of cleaved substrate. The height of the product signal is proportional to the rate of enzyme turnover for that substrate concentration. The rate of fluorescence generation can be assessed as the fluorescence signal per mixing time of substrate and enzyme in the reaction channel. That mixing time is determined by the mean residence time of the fluorescent product in the reaction channel as it is electrokinetically pumped from the source of the mixing to the detector. Km was determined from the Michaelis Menton equation.
Due to the chemistry of this FRET quenching reaction, several considerations for accurate measurement of Km on the Labchip™ exist. (1.) There is not an accurate calibration curve for the EDANS labeled product. (2) Accurate determination of the substrate concentration in the Labchip™ reagent well by a simple spectrophotometric measurement is not performed. […]
Note however that this well controlled background fluorescence is not the substrate only background. The extent of substrate hydrolysis over time could not be measured in the continuous flow analysis where enzyme was pumped throughout the course of the experiments. […]
The average percent inhibition response was calculated for the first three inhibited and uninhibited signals at the start of each hour.

[2] = target: T2, LAR phosphatase (Homo sapiens, UniProt P10586); experiment: LAR phosphatase/dFMUP assay in a cuvette on the spectrophotometer; details: 1M NDSB-195/50 mM Hepes, pH 7.5, 0.1 mg/ml BSA
Experimental: A least squares fit of the three straight lines: no inhibitor, 35 μM and 69 μM peptide, was performed with the constraint that they meet at a common intercept on the y axis, 1/Vmax FIG. 15. […] The kcat is 4.74 μmol/min nmol LAR. The parallel analysis performed on the spectrophotometer in the same running buffer yielded a kcat of 6 μmol/min nmol LAR. […] The same analysis performed in a cuvette experiment with 1 mg/ml BSA in the running buffer gave 167 μM peptide.
In addition to the above kinetic studies, rate as a function of substrate concentration data was collected on three separate chips in order to consider interchip reproducibility for Km analyses. The combined data were used to prepare a double reciprocal plot. […] This is in excellent agreement with cuvette experiments performed on the spectrophotometer where dFMU was detected at 360 nm in a temperature controlled cuvette at 25° C.

[3] = target: T2, LAR phosphatase; experiment: Continuous flow LAR phosphatase assay with fluorogenic substrate dFMUP on a 7A microchip
From the text: In many cases, the biochemical system that is being assayed can be selected or engineered to have an easily detectable result. For example, assaying enzyme function is typically made simple by utilizing fluorogenic substrates for the enzyme, e.g., non-fluorescent substrates which yield fluorescent products. Such assays are readily incorporated into microfluidic devices for performance of assays to identify compounds that may effect normal enzyme activity. In one embodiment, using a 7A chip as described supra (see, e.g., FIG. 7), one continuously flows enzyme and fluorogenic substrate through a channel of the device. This continuous flow of enzyme and substrate produces a steady state fluorescent signal from the fluorescent product. Enzyme inhibitor (or, e.g., compounds for which one wishes to test inhibitory activity) are periodically introduced into the main channel. These inhibitors then reduce the amount of product produced within the main channel resulting in a deviation from the steady state signal. Specifically, both phosphatase assays and protease assays were performed using a 7A chip.
The phosphatase assay utilizes a fluorogenic substrate dFMU, which produces a fluorescent signal upon dephosphorylation. The reaction is shown schematically in FIG. 12. […] In this experiment, the running buffer was 1 M NDSB-195 in 25 mM HEPES, pH 7.9. Reagent concentrations were 125 nM LAR, 50 μM dFMUP and 200 μM peptide inhibitor in wells 6, 8 and 2 respectively. Each reagent well was paired with a well containing running buffer. The system was programmed to repeatedly run a sixteen-step loop of experiments. The sixteen steps were a series of controls followed by the enzyme plus substrate experiment. Each step of the loop conserved the total current flux in the main reaction channel. The total flux remained constant during each step of the loop by maintaining a constant sum of currents from the wells. The proportion of that overall flux from each reagent and buffer well was selected to provide the desired final reagent concentration in the main reaction channel. The fluorescence response was monitored in each of the sixteen experimental steps where the continuous flow stream alternated between buffer, substrate, buffer, substrate plus enzyme at four different substrate concentrations. An example of a controller program is shown below, Table 2.
The substrate concentration was varied for each sequence of three controls followed by the enzyme reaction. The concentrations of the reagents in the main channel can be calculated from the ratio of currents used to pump the reagents. The concentrations in the reaction channel are simply the concentration in the well multiplied by the ratio of current applied at that well, divided by the total current. Here the reaction mixture was […], and either 5, 12.5, 17 or 25 μM dFMUP. The raw fluorescence data is plotted as a function of time. […] Rise times for the enzyme/substrate signal are less than 5 seconds. The background signal remained low over the course of many experimental cycles.
The raw data for the Km, Vmax, kcat and Ki determinations are plotted in FIG. 14. Each trace represents a set of experiments performed in seven step cycles. The enzyme solution was pumped continuously, providing a final concentration of 83 nM LAR in 1 M NDSB-195, 50 mM HEPES, pH 7.5 in the reaction channel, while the signal at various substrate concentrations was recorded. The first step of the cycle is an enzyme only control. Steps two through six contain different levels of substrate up to an including 17 μM dFMUP. The final step of the cycle is a substrate only control, 17 μM dFMUP with no enzyme. The entire experiment, (no peptide inhibitor), was repeated at two inhibitor concentrations, 35 uM and 69 uM peptide. […]

[4] = chip, 50 mM HEPES, pH 7.5, 10 mM DTT, 0.5 M NDSB-195

T2 sequence (P10586 30-1907): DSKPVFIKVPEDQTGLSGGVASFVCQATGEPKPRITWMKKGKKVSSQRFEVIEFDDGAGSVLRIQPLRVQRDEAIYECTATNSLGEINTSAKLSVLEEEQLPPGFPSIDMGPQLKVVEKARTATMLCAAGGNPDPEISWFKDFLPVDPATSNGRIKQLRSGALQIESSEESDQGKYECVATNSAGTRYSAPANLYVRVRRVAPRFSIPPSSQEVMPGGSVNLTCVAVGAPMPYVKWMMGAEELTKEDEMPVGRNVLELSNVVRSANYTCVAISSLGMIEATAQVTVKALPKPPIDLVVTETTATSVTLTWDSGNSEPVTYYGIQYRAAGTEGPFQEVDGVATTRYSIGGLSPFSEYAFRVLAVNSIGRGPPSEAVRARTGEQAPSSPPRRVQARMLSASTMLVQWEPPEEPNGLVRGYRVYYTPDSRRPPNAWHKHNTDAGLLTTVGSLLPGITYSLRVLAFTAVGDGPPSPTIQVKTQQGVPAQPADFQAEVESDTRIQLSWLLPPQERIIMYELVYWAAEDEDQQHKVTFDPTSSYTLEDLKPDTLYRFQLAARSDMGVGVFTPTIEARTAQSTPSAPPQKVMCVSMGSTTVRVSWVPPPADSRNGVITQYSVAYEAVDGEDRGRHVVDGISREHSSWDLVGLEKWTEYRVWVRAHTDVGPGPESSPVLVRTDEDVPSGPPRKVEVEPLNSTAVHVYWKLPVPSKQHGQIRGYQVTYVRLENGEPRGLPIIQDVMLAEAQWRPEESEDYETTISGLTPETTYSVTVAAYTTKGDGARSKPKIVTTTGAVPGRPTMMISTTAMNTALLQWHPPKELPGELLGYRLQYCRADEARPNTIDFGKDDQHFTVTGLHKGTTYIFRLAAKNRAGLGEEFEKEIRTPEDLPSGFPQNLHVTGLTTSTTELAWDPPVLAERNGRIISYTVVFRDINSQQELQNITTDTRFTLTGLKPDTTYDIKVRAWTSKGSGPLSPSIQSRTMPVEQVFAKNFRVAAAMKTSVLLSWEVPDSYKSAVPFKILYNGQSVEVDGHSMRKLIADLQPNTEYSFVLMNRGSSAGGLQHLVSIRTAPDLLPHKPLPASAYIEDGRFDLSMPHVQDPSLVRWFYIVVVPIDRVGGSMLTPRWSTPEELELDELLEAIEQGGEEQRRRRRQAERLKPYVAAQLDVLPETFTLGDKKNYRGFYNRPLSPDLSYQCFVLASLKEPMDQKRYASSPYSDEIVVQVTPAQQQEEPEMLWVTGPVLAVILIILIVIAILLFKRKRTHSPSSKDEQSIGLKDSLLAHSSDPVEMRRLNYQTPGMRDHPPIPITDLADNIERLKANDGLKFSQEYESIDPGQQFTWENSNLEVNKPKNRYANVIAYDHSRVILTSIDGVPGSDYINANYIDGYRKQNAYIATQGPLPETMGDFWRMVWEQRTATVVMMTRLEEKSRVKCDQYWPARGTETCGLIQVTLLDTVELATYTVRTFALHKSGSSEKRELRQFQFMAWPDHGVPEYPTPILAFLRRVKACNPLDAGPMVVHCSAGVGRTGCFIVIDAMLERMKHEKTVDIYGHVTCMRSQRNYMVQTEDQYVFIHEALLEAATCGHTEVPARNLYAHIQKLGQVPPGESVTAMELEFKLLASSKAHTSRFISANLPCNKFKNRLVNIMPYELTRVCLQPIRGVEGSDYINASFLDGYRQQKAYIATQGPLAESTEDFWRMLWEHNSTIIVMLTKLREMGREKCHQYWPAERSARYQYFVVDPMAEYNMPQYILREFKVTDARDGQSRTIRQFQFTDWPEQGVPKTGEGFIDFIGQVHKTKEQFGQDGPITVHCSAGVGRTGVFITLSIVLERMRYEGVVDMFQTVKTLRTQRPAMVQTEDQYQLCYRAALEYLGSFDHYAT
T1 sequence (P27958 1027-1208): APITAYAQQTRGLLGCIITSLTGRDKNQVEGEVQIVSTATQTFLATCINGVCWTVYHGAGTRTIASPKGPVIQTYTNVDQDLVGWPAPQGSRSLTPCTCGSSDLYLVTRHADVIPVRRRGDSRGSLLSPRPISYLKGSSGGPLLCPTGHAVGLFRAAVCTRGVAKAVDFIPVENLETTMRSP

| kcat ([2]; Cuvette (spectrophotometer)) [μmol/min nmolLAR] | Km ([2]; Cuvette, 25° C, average of four determinations) [µM] | kcat ([3]; Chip, 1M NDSB-195/50 mM Hepes, pH 7.5, 83 nM LAR) [μmol/min nmolLAR] | Km ([3]; Chip, 1M NDSB-195/50 mM Hepes, pH 7.5, average of three chips, read-out: Km LAR/dFMUP) [µM] | Km ([3]; Chip, combined data of three separate chips, double reciprocal plot, read-out: Km) [µM] | Vmax ([3]; Chip, least squares fit of Lineweaver-Burke lines, 83 nM LAR) [μM dFMU/s] | Vmax [3, 4] [mM/s] | kcat [3, 4] [min⁻¹] | Km ([3]; chip, 50 mM HEPES, pH 7.5, 10 mM DTT, 0.5 M NDSB-195, read-out: Km) [µM] | Structure (SMILES) | Km [1] [µM] |
| --- | --- | --- | --- | --- | --- | --- | --- | --- | --- | --- |
| – | – | – | – | – | – | – | – | – | C/C=C1\NC(=O)[C@H]2CSSCC/C=C/[C@H](CC(=O)N[C@H](C(C)C)C(=O)N2)OC(=O)[C@H](C(C)C)NC1=O [Depsipeptide] | 110 |
| 6 | 23.2 | 4.74 | 18.7 | 18.2 | 6.71 | 0.011 | 3000 to 5000 | 20 to 400 | Cc1cc(=O)oc2c(F)c(OP(=O)(O)O)c(F)cc12 [dFMUP] | – |

From US6613512B1, “Apparatus and method for correcting for variable velocity in microfluidic systems” (Caliper Technologies Corp., priority 1997, dated 2003)
